Assay results reported in PubChem BioAssay (NCI).
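These data come from cells grown in 96-well plates and exposed to compound for 48 hours at five concentrations. GI50 marks 50% less growth. TGI marks complete inhibition of growth.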

Legend:
Assay in all cases: NCI anticancer screen, dose series, 48 h
SF-295 CNS = test system: SF-295 CNS
SR leukemia = test system: SR leukemia
NCI-H226 lung = test system: NCI-H226 lung
BT-549 breast = test system: BT-549 breast
SF-539 CNS = test system: SF-539 CNS
A498 renal = test system: A498 renal
SK-MEL-28 melanoma = test system: SK-MEL-28 melanoma
UACC-257 melanoma = test system: UACC-257 melanoma
NCI/ADR-RES ovarian = test system: NCI/ADR-RES ovarian
SK-MEL-2 melanoma = test system: SK-MEL-2 melanoma

SMILES | GI50 (SF-295 CNS) | TGI (SF-295 CNS) | GI50 (SR leukemia) | TGI (SR leukemia) | GI50 (NCI-H226 lung) | TGI (NCI-H226 lung) | GI50 (BT-549 breast) | TGI (BT-549 breast) | GI50 (SF-539 CNS) | TGI (SF-539 CNS) | GI50 (A498 renal) | TGI (A498 renal) | GI50 (SK-MEL-28 melanoma) | TGI (SK-MEL-28 melanoma) | GI50 (UACC-257 melanoma) | TGI (UACC-257 melanoma) | GI50 (NCI/ADR-RES ovarian) | TGI (NCI/ADR-RES ovarian) | GI50 (SK-MEL-2 melanoma) | TGI (SK-MEL-2 melanoma)
NC(CS/C(Cl)=C/Cl)C(=O)O (stereo not given) | 3.17 µM | 12.3 µM | 34.9 µM | > 100 µM | > 100 µM | > 100 µM | 12.1 µM | > 64.1 µM | > 100 µM | > 100 µM | 8.7 µM | 33.8 µM | 43.6 µM | > 100 µM | 23.3 µM | 78.8 µM | 31.8 µM | > 100 µM | 22.2 µM | > 100 µM
NC(N)=NCCCCCNc1noc(Cc2c[nH]c3cc(Br)ccc23)n1 | 17.8 µM | 56.6 µM | 13.8 µM | 40 µM | 13.6 µM | 46.9 µM | 3.35 µM | 14.9 µM | 12.5 µM | 29.5 µM | > 100 µM | > 100 µM | 16.3 µM | 36.7 µM | 14.6 µM | 80.3 µM | 40.4 µM | > 100 µM | 22.8 µM | 57.8 µM
C=CCSS/C=C/CS(=O)CC=C (stereo not given) |  | > 100 µM |  | > 55.6 µM |  | > 100 µM |  | > 56.7 µM |  | 51.6 µM |  | > 100 µM |  | 49.9 µM |  | > 100 µM |  | 74.5 µM |  | 97.6 µM
Cc1cc(S(=O)(=O)N/N=C(\Sc2cc(Cl)c(C)cc2S(N)(=O)=O)c2ccc(Cl)cc2)c(Cl)cc1Cl | > 100 µM | > 100 µM | 64.2 µM | > 100 µM | 58.3 µM | > 100 µM | 61.8 µM | > 100 µM | 28.6 µM | 61.5 µM | 57.1 µM | > 100 µM | > 100 µM | > 100 µM | 44.5 µM | > 100 µM | > 100 µM | > 100 µM | > 100 µM | > 100 µM
CC1CCC(=O)C(C(=O)CC2CC(=O)NC(=O)C2)C1 (stereo not given) |  | > 100 µM |  | > 100 µM |  | > 100 µM |  | > 100 µM |  | > 100 µM |  | > 100 µM |  | > 100 µM |  | > 100 µM |  | > 100 µM |  | > 100 µM
N#CC(=NCCO)C1=C(O)c2ccccc2C1=O |  | > 100 µM |  | > 100 µM |  | > 100 µM |  | > 100 µM |  | > 100 µM |  | > 100 µM |  | > 100 µM |  | > 100 µM |  | > 100 µM |  | > 100 µM
COCCOc1cnc2ccn([C@H](C)c3nnc4c(F)cc(-c5cnn(C)c5)cn34)c(=O)c2c1 | 23.4 µM | > 100 µM | > 100 µM | > 100 µM | > 100 µM | > 100 µM | > 100 µM | > 100 µM | > 100 µM | > 100 µM | 33.1 µM | > 100 µM | > 100 µM | > 100 µM | > 100 µM | > 100 µM | > 100 µM | > 100 µM | > 100 µM | > 100 µM
CC(=O)O[C@H](C[C@H](C(C)C)N(C)C(=O)[C@@H](NC(=O)[C@H]1CCCCN1C)C(C)C)c1nc(C(=O)N[C@@H](Cc2ccccc2)C[C@H](C)C(=O)O)c(CCOCc2ccccc2)s1 | < 0.001 µM | < 0.0297 µM | < 0.001 µM | > 10 µM | < 0.001 µM | 0.00313 µM | < 0.001 µM | 0.00816 µM | < 0.001 µM | 0.00174 µM | < 0.001 µM | 0.00316 µM | 0.797 µM | > 10 µM | < 0.001 µM | > 10 µM | 0.003 µM | 0.0511 µM | < 0.001 µM | > 5.68 µM
CCn1c(CO)nn(-c2cc(O[C@@H](C)C(F)(F)F)c(C(=O)Nc3c(F)cccc3Cl)cc2F)c1=O | < 0.01 µM | > 100 µM | < 0.01 µM | > 43.1 µM |  | > 100 µM |  | > 100 µM | < 0.01 µM | > 100 µM | 3.84 µM | > 100 µM | > 24.4 µM | > 100 µM |  | > 100 µM | < 0.0245 µM | > 93.5 µM | > 28.4 µM | > 100 µM
Cc1cc(I)cc(CN(C)CCCN2CCOCC2)c1O | 25.1 µM | 74.8 µM | 19.6 µM | 48 µM | 99.9 µM | > 100 µM | 13.9 µM | 85.5 µM | 16.7 µM | 39.4 µM | 19.1 µM | 48.6 µM | 17.4 µM | 32.3 µM | 21.6 µM | 44.8 µM | 67.5 µM | > 100 µM | 19.6 µM | 38.5 µM
COc1ccc2c(O)cc3c(c2c1)[C@H](CCl)CN3C(=O)c1cc2cc(NC(=O)CCN3CCOCC3)ccc2[se]1 | < 0.001 µM | < 0.001 µM | < 0.001 µM | > 10 µM | < 0.001 µM | 0.00163 µM | 0.00104 µM | 0.00649 µM | < 0.001 µM | 0.00264 µM | < 0.001 µM | < 0.001 µM | < 0.001 µM | < 0.001 µM | < 0.001 µM | 0.00319 µM | < 0.001 µM |  | < 0.001 µM | < 0.001 µM
C[C@]12CC[C@@H]3c4ccc(O)cc4CC[C@H]3[C@@H]1CC[C@@H]2NS(=O)(=O)c1cccc(F)c1 | 3.29 µM | 11.9 µM | 2.35 µM | 8.28 µM | 3.72 µM | 16.7 µM | 2.82 µM | 8.46 µM | 3.91 µM | 14.1 µM | 2.07 µM | 6.68 µM | 4.81 µM | 17.8 µM | 4.07 µM | 16.3 µM | 2.88 µM | 17 µM | 2.8 µM | 8.14 µM
Oc1cn(-c2ccc(Cl)cc2)nc1-c1n[nH]c(=S)n1C1CCCCC1 | < 0.0447 µM | 0.479 µM | < 0.0413 µM | > 100 µM | 59.8 µM | > 100 µM | 9.51 µM | > 100 µM | 0.312 µM | 1.11 µM | 0.365 µM | 9.44 µM | 0.639 µM | > 100 µM | 0.873 µM | > 100 µM |  | 1.05 µM | > 52.3 µM | > 100 µM
COc1ccc2c(c1)C(C)Cc1c(ncnc1-n1c(C)nc3ccccc31)N2C (stereo not given) | 1.79 µM | 7.85 µM | 0.345 µM | 5.54 µM | 11.5 µM | 36.1 µM | 5.82 µM | 30.6 µM | 2.34 µM | 6.92 µM | 2.15 µM | 9.03 µM | 11.1 µM | 26.2 µM | 14.8 µM | 33.5 µM | 2 µM | 19.3 µM | 4.48 µM | 17.8 µM
Cc1c(C2=C(Br)C(=O)N(C)C2=O)c(=O)n(C)c(=O)n1C |  | > 100 µM |  | 75.9 µM |  | > 100 µM |  | 51.1 µM |  | 34.6 µM |  | 82.9 µM |  | > 100 µM |  | 32 µM |  | 74.1 µM |  | 35.2 µM
CCCCC1(CN2CCOCC2)S/C(=N/c2nc(CC(=O)OCC)cs2)NC1=O (stereo not given) | 35.3 µM | > 100 µM | 26.2 µM | 65.9 µM | 38.6 µM | > 100 µM | 41.8 µM | > 100 µM | 29 µM | 89.9 µM | 41.5 µM | > 100 µM | 38.4 µM | > 100 µM | 40.4 µM | > 100 µM | 40.1 µM | > 100 µM | 29.7 µM | 89.2 µM
O=[N+]([O-])c1ccc2c(c1)C(c1ccccc1Cl)=Nc1cn[nH]c1N2 | 8.48 µM | > 23.8 µM | 15.2 µM | > 25 µM | 11.8 µM | > 25 µM | 16.2 µM | > 25 µM | 14.6 µM | > 25 µM | 8.27 µM | > 23.3 µM | > 23.7 µM | > 25 µM | > 25 µM | > 25 µM | 23.1 µM | > 25 µM | 10.7 µM | > 22 µM
Nc1nc(SN=Nc2ccc(S(N)(=O)=O)cc2)c2[nH]cnc2n1 | 0.363 µM | > 100 µM | 0.186 µM | > 100 µM | 0.867 µM | > 100 µM | 1.15 µM | > 100 µM | 0.552 µM | > 100 µM | 1.35 µM | 7.47 µM | 2.29 µM | > 52.5 µM | 1.62 µM | > 100 µM | 0.455 µM | > 100 µM | 1.24 µM | > 100 µM
O=C(/C=C/c1cc(CN2CCOCC2)c(O)c2ncccc12)c1cc(CN2CCOCC2)c(O)c2ncccc12 | 0.0529 µM | > 36.4 µM | 0.0463 µM | > 100 µM | 0.43 µM | 41.8 µM | 0.0287 µM | 16.9 µM | 0.0433 µM | 23.6 µM | 0.246 µM | 18 µM | 0.594 µM | > 100 µM | 0.202 µM | 8.88 µM | 0.091 µM | > 100 µM | 0.0637 µM | 4.99 µM
N=C(N)SCc1cccc(-c2nc3ccccc3c(=O)o2)c1 |  | > 100 µM |  | > 100 µM |  | > 100 µM |  | > 100 µM |  | > 100 µM |  | > 100 µM |  | > 100 µM |  | > 100 µM |  | > 100 µM |  | > 100 µM
CC(C)CNC(=O)O |  | > 100 µM |  | > 100 µM |  | > 100 µM |  | > 100 µM |  | > 100 µM |  | > 100 µM |  | > 100 µM |  | > 100 µM |  | > 100 µM |  | > 100 µM
C=C1C(=O)O[C@H]2[C@H]1CC/C(COC(=O)c1ccc(Cl)nc1)=C\CC[C@@]1(C)O[C@@H]21 | 10.9 µM | 22.9 µM | 0.658 µM | 38.8 µM | 2.66 µM | 6.78 µM | 1.95 µM | 6.71 µM | 1.61 µM | 3.61 µM | 17.8 µM | 32.7 µM | 1.94 µM | 4.9 µM | 1.83 µM | 4.17 µM | 5.03 µM | 23.9 µM | 2.06 µM | 5.51 µM
O=C(Nc1ccc(Br)cc1)c1ccc(Cl)c(Cl)c1 | 2.03 µM | 4.94 µM | 4.35 µM | > 100 µM | 2.86 µM | > 100 µM | 2.74 µM | > 29.8 µM | 4.01 µM | > 100 µM | 0.207 µM | 3.75 µM | 3.93 µM | > 100 µM | 3.69 µM | > 89.2 µM | 3.24 µM | > 100 µM | 3.59 µM | > 29.8 µM
